Consider three compounds from US10900040B2, “Methods of reducing or preventing intimal damage caused by mechanical stimulation of endothelial cells” (University of Maryland, Baltimore, priority 2015, dated 2021).

Data set [1] relates to spinal cord injury. As to the kind of experiment: Outcome from spinal cord injury after antisense oligodeoxynucleotides. In kind it is in vivo. The note with it: TRPM4-AS1 and TRPM4-AS2 used together; phosphorothioated. The source says:
(§1) In certain embodiments of the invention, antagonists of TRPM4 are employed in methods and/or compositions. Antagonists may be of any kind, but in particular embodiments the antagonists are proteins, nucleic acids, small molecules, and so forth. In specific cases, the TRPM4 antagonists comprise flufenamic acid and/or 9-phenanthrol and/or spermine and/or decavanadate and/or BTP2 and/or anti-TRPM4 antibodies. In specific cases, the TRPM4 nucleic acid antagonists comprises RNAi, such as siRNA or shRNA or antisense oligodeoxynucleotides (AS-ODN).

Data set [2] relates to TRPM4. As to the kind of experiment: Reduction of TRPM4 expression by antisense oligodeoxynucleotides. In kind it is in vivo. The note with it: TRPM4-AS1 and TRPM4-AS2 used together; phosphorothioated.
Excerpt: as §1

Data set [3] deals with T1, SUR1-TRPM4 channel (Homo sapiens, UniProt Q09428+Q8TD43).
T1 construct: endogenous in cells
T1 sequence (Q09428 whole entry): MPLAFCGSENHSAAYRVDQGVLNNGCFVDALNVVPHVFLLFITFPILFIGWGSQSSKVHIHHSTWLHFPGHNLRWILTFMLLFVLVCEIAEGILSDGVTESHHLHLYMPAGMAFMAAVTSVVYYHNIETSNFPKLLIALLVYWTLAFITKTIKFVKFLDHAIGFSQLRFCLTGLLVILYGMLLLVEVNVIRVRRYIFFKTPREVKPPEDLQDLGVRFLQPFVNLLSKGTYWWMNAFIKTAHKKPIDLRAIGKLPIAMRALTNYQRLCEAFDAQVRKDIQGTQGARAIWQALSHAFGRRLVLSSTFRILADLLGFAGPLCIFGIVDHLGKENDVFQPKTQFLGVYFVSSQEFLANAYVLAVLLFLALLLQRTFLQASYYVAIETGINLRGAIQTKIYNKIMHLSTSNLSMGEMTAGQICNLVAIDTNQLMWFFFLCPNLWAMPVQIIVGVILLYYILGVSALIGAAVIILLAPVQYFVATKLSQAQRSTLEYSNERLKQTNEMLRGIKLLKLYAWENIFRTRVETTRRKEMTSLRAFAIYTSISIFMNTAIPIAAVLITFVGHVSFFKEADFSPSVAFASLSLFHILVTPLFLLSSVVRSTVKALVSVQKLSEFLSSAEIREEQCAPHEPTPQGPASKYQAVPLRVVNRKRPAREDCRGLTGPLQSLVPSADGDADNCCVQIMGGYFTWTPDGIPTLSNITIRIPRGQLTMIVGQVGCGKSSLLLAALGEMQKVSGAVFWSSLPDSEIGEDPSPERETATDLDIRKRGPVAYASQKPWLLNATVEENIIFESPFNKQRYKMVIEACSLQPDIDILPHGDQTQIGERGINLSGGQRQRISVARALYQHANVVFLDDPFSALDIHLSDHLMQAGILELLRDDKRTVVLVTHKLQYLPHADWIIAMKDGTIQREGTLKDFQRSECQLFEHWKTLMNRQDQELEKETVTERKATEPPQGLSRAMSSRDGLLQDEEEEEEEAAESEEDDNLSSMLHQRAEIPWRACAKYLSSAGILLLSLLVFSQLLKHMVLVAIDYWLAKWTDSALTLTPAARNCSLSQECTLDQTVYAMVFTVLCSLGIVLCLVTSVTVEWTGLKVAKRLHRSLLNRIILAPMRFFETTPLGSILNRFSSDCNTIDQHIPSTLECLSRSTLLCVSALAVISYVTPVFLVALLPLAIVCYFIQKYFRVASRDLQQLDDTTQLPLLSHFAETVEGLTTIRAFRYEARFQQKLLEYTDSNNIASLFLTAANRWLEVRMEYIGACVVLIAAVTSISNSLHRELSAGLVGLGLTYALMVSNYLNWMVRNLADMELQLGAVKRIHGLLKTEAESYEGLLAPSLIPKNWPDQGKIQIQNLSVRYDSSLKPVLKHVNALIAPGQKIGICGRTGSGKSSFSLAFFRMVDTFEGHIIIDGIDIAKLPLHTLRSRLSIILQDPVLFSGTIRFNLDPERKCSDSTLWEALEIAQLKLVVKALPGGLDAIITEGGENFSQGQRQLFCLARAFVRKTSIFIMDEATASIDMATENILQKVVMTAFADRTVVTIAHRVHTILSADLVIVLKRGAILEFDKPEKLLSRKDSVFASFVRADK
T1 sequence (Q8TD43 whole entry): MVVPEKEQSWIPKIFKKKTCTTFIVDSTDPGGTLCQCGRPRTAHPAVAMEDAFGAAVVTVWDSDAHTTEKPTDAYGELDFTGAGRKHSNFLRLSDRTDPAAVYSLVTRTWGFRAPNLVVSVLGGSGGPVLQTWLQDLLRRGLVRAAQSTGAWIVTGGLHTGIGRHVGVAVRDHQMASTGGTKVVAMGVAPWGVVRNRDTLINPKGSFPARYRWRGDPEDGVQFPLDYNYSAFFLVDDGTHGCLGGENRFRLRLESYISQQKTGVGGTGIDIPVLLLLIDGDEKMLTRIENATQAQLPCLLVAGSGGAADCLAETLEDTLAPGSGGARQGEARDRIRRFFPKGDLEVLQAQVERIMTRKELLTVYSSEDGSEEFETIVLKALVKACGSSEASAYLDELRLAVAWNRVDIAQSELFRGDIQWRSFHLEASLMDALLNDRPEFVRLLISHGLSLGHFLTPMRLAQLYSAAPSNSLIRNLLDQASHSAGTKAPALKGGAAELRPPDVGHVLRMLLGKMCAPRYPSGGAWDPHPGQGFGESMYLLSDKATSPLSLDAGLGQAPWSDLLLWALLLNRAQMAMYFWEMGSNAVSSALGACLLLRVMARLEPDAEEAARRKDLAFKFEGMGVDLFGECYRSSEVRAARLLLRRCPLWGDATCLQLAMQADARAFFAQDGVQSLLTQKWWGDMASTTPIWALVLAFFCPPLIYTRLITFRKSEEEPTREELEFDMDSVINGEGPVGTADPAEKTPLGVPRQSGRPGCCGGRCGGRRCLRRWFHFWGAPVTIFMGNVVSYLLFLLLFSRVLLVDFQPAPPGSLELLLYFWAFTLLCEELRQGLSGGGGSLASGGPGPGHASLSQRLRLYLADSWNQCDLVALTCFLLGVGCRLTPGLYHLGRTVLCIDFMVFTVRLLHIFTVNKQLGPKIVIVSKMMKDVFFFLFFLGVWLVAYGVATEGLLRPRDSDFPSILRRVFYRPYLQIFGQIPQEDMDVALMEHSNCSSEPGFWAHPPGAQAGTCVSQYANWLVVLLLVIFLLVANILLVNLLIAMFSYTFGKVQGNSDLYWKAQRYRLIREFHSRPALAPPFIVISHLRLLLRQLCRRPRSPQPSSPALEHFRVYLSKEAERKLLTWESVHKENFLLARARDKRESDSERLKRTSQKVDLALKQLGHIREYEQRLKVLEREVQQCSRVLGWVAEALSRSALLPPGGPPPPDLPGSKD
The data set can be described thus: Patch clamp recordings of SUR1-TRPM4 channel currents in mechanically stimulated endothelial cells. The following applies: endothelial cells after mechanical stimulation; currents carried by Cs+ ions. In kind it is cell-based. On the procedure:
FIGS. 2A and 2B. Mechanical stimulation of endothelial cells causes upregulation of functional SUR1-TRPM4 channels. Endothelial cells were cultured in dishes with flexible bottoms and the cells were mechanically stimulated by applying puffs of air to the underside of the dishes. […] FIG. 2B: Amplitudes of SUR1-TRPM4 channel currents measured at −50 mV under control conditions before mechanical activation (CTR), following mechanical activation (STR), following mechanical activation in the presence of the NF-kappaB inhibitor, pyrrolidine dithiocarbamate (PDTC) as negative control, and without mechanical activation, in the presence of tumor necrosis factor alpha (TNFalpha), as positive control.
Endothelial cells were cultured in dishes with flexible bottoms and the cells were mechanically stimulated by applying puffs of air to the underside of the dishes. […] NFκB activation caused robust transcriptional upregulation of the SUR1-TRPM4 channels 6 hours later (FIGS. 1B and 1C). […] The critical role of the mechanosensitive transcription factor, NF-κB, in Sur1-Trpm4 channel upregulation was confirmed using the NF-κB inhibitor, pyrrolidine dithiocarbamate (PDTC) as negative control, and the NF-κB activator, tumor necrosis factor α (TNFα), as positive control (FIG. 2B).
A general note: Patch clamp records ionic current or voltage across a cell membrane.

Turning to “5′-CTGCGATAGCACTCGCCAAA-3′ (chemistry not given here) [TRPM4-AS2, antisense oligodeoxynucleotide against TRPM4]”, the “improving outcome from spinal cord injury” value in data set [1] was “highly effective”. The “reducing TRPM4 expression” value in data set [2] is given as “highly effective”. With `CNC[C@H](O)[C@@H](O)[C@H](O)[C@H](O)CO` [N-methyl-D-glucamine], the “effect on SUR1-TRPM4 channel currents (patch clamp)” value in data set [3] is “channel blockade”. In the case of “5′-GTGTGCATCGCTGTCCCACA-3′ (chemistry not given here) [TRPM4-AS1, antisense oligodeoxynucleotide against TRPM4]”, in data set [1], the “improving outcome from spinal cord injury” value is given as “highly effective”. Further, the “reducing TRPM4 expression” value in data set [2] is listed as “highly effective”.
